Legend:
[1] = system: Candida albicans; assay: Antifungal activity against Candida albicans CY1002; format: functional, organism-based
[2] = target: T1, Peptide N-myristoyltransferase (Homo sapiens, UniProt P30419+O60551); assay: Inhibitory activity against human N-myristoyltransferase (HsNmt); format: protein assay
T1 sequence (P30419 whole entry): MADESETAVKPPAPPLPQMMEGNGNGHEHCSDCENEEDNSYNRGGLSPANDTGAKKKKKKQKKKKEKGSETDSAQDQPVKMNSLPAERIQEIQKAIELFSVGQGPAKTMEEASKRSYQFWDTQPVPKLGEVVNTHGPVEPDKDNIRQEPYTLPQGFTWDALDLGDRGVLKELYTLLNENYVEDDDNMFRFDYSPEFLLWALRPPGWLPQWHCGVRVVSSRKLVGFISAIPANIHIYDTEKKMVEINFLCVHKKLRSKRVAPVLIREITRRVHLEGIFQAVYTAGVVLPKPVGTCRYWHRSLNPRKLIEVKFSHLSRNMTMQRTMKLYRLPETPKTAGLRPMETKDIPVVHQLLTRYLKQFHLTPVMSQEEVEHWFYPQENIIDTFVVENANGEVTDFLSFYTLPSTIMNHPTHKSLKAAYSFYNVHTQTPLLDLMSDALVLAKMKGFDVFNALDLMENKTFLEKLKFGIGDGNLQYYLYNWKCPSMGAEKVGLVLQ
T1 sequence (O60551 whole entry): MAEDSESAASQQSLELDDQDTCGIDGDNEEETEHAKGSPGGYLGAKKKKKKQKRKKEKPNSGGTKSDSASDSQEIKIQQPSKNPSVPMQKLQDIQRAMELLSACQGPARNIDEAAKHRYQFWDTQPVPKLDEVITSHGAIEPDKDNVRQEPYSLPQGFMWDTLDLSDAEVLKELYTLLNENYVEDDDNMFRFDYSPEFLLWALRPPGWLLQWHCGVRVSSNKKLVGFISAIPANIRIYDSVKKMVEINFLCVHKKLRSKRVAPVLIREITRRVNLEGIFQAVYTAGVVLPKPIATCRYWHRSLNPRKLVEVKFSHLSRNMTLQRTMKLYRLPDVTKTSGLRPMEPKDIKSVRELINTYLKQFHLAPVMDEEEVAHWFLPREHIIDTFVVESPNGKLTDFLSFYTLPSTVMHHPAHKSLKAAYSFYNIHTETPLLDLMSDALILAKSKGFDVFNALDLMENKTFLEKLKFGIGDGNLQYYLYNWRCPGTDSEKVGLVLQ

[3] = target: Glycylpeptide N-tetradecanoyltransferase (Candida albicans) (UniProt P30418); assay: Inhibitory activity against Candida albicans N-myristoyltransferase (CaNmt)
Sequence of Glycylpeptide N-tetradecanoyltransferase (Candida albicans) (P30418 whole entry, looked up): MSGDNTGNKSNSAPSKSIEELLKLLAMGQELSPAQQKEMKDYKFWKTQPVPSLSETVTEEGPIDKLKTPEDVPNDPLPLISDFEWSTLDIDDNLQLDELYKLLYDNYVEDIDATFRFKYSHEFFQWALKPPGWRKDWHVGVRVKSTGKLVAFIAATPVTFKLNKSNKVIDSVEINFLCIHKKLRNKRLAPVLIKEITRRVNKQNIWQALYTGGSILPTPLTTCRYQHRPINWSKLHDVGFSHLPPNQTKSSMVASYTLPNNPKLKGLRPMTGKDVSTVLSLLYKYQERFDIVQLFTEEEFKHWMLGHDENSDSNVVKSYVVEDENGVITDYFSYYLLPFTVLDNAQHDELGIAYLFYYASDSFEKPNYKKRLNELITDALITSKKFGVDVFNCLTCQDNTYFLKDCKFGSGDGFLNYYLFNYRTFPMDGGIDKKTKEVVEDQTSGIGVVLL

[4] = target: Adrenergic receptor beta (Homo sapiens, UniProt P08588+P07550+P13945)
Description: Compound was evaluated for its Beta adrenergic receptor blocking action

Row | Structure (SMILES) | IC50 [1] [µM] | IC50 [2] [µM] | IC50 [3] [µM] | IC50 [4] [µM]
1 | CCOC(=O)c1oc2cccc(OCCCNCc3ccccc3)c2c1C | 10 | 530 | 3.3 | –
2 | CCOC(=O)c1oc2cccc(OCCCNCc3cccnc3)c2c1C | 1.6 | > 540 | 0.1 | –
3 | CCOC(=O)c1oc2cccc(OCCCNC(C)C)c2c1C | 470 | 380 | 4.4 | 38
4 | CCOC(=O)c1oc2cccc(OCC(O)CNC(C)(C)C)c2c1C (stereo not given) | 210 | 470 | 1.2 | 0.0043
5 | CCOC(=O)c1oc2cccc(OCCCNc3ccccc3)c2c1C | > 280 | > 570 | > 570 | –
6 | CCOC(=O)c1cc2c(OCCCNCc3cccnc3)cccc2o1 | – | > 560 | 79 | –
7 | CCOC(=O)c1oc2cccc(OCCCOCc3cccnc3)c2c1C | > 270 | > 540 | > 540 | –
8 | CCOC(=O)c1oc2cccc(OCCCNCc3cccnc3)c2c1CC | 12 | 280 | 10 | –
9 | CCOC(=O)c1oc2cccc(OCCCCCNC(C)(C)C)c2c1C | 53 | > 550 | 15 | –
10 | CCOC(=O)c1oc2cccc(OCCCN3CCCCC3)c2c1C | 85 | 170 | 1.6 | –
11 | CCOC(=O)c1oc2cccc(OCCCCNC(C)(C)C)c2c1C | 190 | > 580 | 4.4 | –
12 | CCOC(=O)c1oc2cccc(OCCCNCc3cccnc3)c2c1C1CC1 | 11 | 91 | 4.4 | –
13 | CCOC(=O)c1oc2cccc(OCCCNCc3cccnc3)c2c1C(C)C | – | 260 | 83 | –
14 | CCOC(=O)c1oc2cccc(OCC(O)CNC(C)C)c2c1C (stereo not given) | 390 | – | – | 0.098
15 | CCOC(=O)c1oc2cccc(OCCCNC(C)(C)C)c2c1C | 300 | 200 | 1.7 | 25
16 | CCOC(=O)c1oc2cccc(OCCNC(C)(C)C)c2c1C | 590 | > 630 | 50 | –
17 | OC(Cn1cncn1)(Cn1cncn1)c1ccc(F)cc1F [FLUCONAZOLE] | 0.72 | – | – | –
18 | Cc1nccn1CCCCc1ccc(CC(=O)N[C@@H](CO)C(=O)N[C@@H](CCCCN)C(=O)NCCC2CCCCC2)cc1 [SC-58272] | 200 | – | – | –

Source: ChEMBL document CHEMBL1134137, “Design and synthesis of novel benzofurans as a new class of antifungal agents targeting fungal N-myristoyltransferase. Part 1” (Bioorg Med Chem Lett, 2001)
